Experimental findings from patent US9439839B2, “Cosmetic solution, method for producing cosmetic solution, and cosmetic method” (priority 2011, dated 2016) are described below.

This experiment in a line: evaluation of moisturizing power with oil water content measuring apparatus. Type of experiment: in vivo. The conditions noted are these: cosmetic solution diluted twice by water, applied to forearm flexor side; compared with propylene glycol and 1,3-butylene glycol. The source says: For the evaluation of moisturizing power, an oil water content measuring apparatus (WSK-P500U manufactured by Wave Cyber) was used. This measuring apparatus indicates the water content of the part of the skin to be measured by a relative value of 0 to 99. The part to be measured was the forearm flexor side.

`OCC(O)CO` [glycerin]: the moisturizing power result was “highest moisturizing power”.
